Read-outs that look alike come from different tables or passages of the source.
Legend:
Format in all cases: biochemical, Arthrobacter globiformis M6
CMM-forming enzyme [1] = test: Action on various saccharides (substrate specificity, TLC); set-up: key: “−” means “Not changed”; “+” means “Spot of substrate is slightly decreased and other products are detected”; “++” means “Spot of substrate is markedly decreased and other products are detected”; “+++” means “Spot of substrate is virtually disappeared and other products are detected”; details: substrate 2% (w/v), one unit/g-substrate enzyme, 40° C., pH 6.0, 24 hours, TLC before and after reaction
Description: Substrate specificity of CMM-forming enzyme of the present invention was investigated using various saccharides as substrates. Substrate solutions were prepared by dissolving maltose, maltotriose, maltotetraose, maltopentaose, maltohexaose, maltoheptaose, neotrehalose, trehalose, kojibiose, nigerose, […] isomaltose, isomaltotriose, panose, isopanose, maltitol, maltotriitol, α-, β- or γ-cyclodextrin, amylose, soluble starch, glycogen, pullulan or dextran into water. Each substrate solution was admixed with acetate buffer (pH 6.0) and CaCl2 to give final concentrations of 20 mM and 1 mM, respectively. […] Substrate concentration was set to 2% (w/v) and followed by the enzyme reaction at 40° C. and pH 6.0 for 24 hours. Action and the specificity of the enzyme on these saccharides were confirmed by analyzing the reaction mixture before and after the reaction by TLC described in Experiment 1.

CMM-forming enzyme [2] = test: Effects of metal ions on the enzyme activity; details: for Effect on CMM-forming enzyme activity: 1 mM
CMM-forming enzyme [3] = test: Formation of CMM from various substrates; details: substrate 1.0% (w/v), one unit/g-substrate enzyme, 40° C., pH 6.0, 48 hours, HPLC
Description: Formation of CMM by the action of CMM-forming enzyme of the present invention was investigated using various saccharides as substrates. Maltotriose, maltotetraose, maltopentaose, maltohexaose, amylose, soluble starch, “[…] #100”, a partial starch hydrolyzate commercialized by Matsutani Chemical Industries Co., Ltd., Hyogo, Japan, or glycogen from corn, commercialized by Q.P. Corporation, Tokyo, Japan, was prepared into a solution. […] The reaction was stopped by heating the reaction mixture at 100° C. for 10 min. After treating the reaction mixture with α-glucosidase and glucoamylase by the same manner in Experiment 1, the amount of CMM was determined by HPLC and CMM content of the reaction mixture was measured.

[4] = CMM-forming enzyme activity in the presence of 1 mM metal salt, None = 100

Molecule | Action (CMM-forming enzyme [1]) | Relative activity (%) (CMM-forming enzyme [2]; [4]) | further results
OC[C@H]1O[C@@H]2O[C@H]3[C@H](O)[C@@H](O)[C@@H](O[C@H]4[C@H](O)[C@@H](O)[C@@H](O[C@H]5[C@H](O)[C@@H](O)[C@@H](O[C@H]6[C@H](O)[C@@H](O)[C@@H](O[C@H]7[C@H](O)[C@@H](O)[C@@H](O[C@H]8[C@H](O)[C@@H](O)[C@@H](O[C@H]1[C@H](O)[C@H]2O)O[C@@H]8CO)O[C@@H]7CO)O[C@@H]6CO)O[C@@H]5CO)O[C@@H]4CO)O[C@@H]3CO [β-Cyclodextrin, β-cyclodextrin] | − |  | 
[Cl-].[Cl-].[Zn+2] [ZnCl2] |  | 73 | 
glycogen | ++ |  | CMM content (%) (CMM-forming enzyme [3]): 29.5%; CMM content (%) (CMM-forming enzyme [3]; listed as glycogen): about 30%
[Cl][Cu][Cl] [CuCl2] |  | 1 | Effect on CMM-forming enzyme activity (CMM-forming enzyme [2]): remarkably inhibited
OC[C@H]1O[C@H](OC[C@H]2O[C@H](O[C@H]3[C@H](O)[C@@H](O)C(O)O[C@@H]3CO)[C@H](O)[C@@H](O)[C@@H]2O)[C@H](O)[C@@H](O)[C@@H]1O (some centres unmarked) [Panose, panose] | − |  | 
OC[C@H]1O[C@@H](O[C@H]2O[C@H](CO)[C@@H](O)[C@H](O)[C@H]2O)[C@H](O)[C@@H](O)[C@@H]1O [Neotrehalose, neotrehalose] | − |  | 
[Cl-].[Cl-].[Co+2] [CoCl2] |  |  | Relative activity (%) (CMM-forming enzyme [2]): 95%
dextran | − |  | 
[Cl][Fe][Cl] [FeCl2] |  | 95 | 
OC[C@H]1O[C@H](O[C@H]2[C@H](O)[C@@H](O)[C@@H](O[C@H]3[C@H](O)[C@@H](O)[C@@H](O[C@H]4[C@H](O)[C@@H](O)C(O)O[C@@H]4CO)O[C@@H]3CO)O[C@@H]2CO)[C@H](O)[C@@H](O)[C@@H]1O (some centres unmarked) [Maltotetraose, maltotetraose] | +++ |  | CMM content (%) (CMM-forming enzyme [3]): 27.3%
[Cl][Al]([Cl])[Cl] [AlCl3] |  | 13 | Effect on CMM-forming enzyme activity (CMM-forming enzyme [2]): inhibited
maltopentaose | +++ |  | CMM content (%) (CMM-forming enzyme [3]): 24.4%
[Ca+2].[Cl-].[Cl-] [CaCl2] |  | 99 | 
OC[C@H]1O[C@H](OC[C@H]2OC(O)[C@H](O)[C@@H](O)[C@@H]2O)[C@H](O)[C@@H](O)[C@@H]1O (some centres unmarked) [Isomaltose, isomaltose] | − |  | 
maltotriose | + |  | CMM content (%) (CMM-forming enzyme [3]): 0.6%; CMM content (%) (CMM-forming enzyme [3]; listed as maltotriose): about 0.6%
maltohexaose | +++ |  | CMM content (%) (CMM-forming enzyme [3]): 41.6%
OC[C@H]1O[C@H](O[C@H]2[C@H](O)[C@@H](O)[C@@H](OC[C@H]3OC(O)[C@H](O)[C@@H](O)[C@@H]3O)O[C@@H]2CO)[C@H](O)[C@@H](O)[C@@H]1O (some centres unmarked) [Isopanose, isopanose] | − |  | 
[Ba+2].[Cl-].[Cl-] [BaCl2] |  | 90 | 

Molecule | Action (CMM-forming enzyme [1]) | Relative activity (%) (CMM-forming enzyme [2]; [4]) | further results
pullulan | − |  | 
[Cl][Pb][Cl] [PbCl2] |  | 36 | Effect on CMM-forming enzyme activity (CMM-forming enzyme [2]): inhibited
soluble starch | +++ |  | CMM content (%) (CMM-forming enzyme [3]): 31.4%; CMM content (%) (CMM-forming enzyme [3]; listed as soluble starch): about 30%
OC[C@H]1O[C@@H]2O[C@H]3[C@H](O)[C@@H](O)[C@@H](O[C@H]4[C@H](O)[C@@H](O)[C@@H](O[C@H]5[C@H](O)[C@@H](O)[C@@H](O[C@H]6[C@H](O)[C@@H](O)[C@@H](O[C@H]7[C@H](O)[C@@H](O)[C@@H](O[C@H]8[C@H](O)[C@@H](O)[C@@H](O[C@H]9[C@H](O)[C@@H](O)[C@@H](O[C@H]1[C@H](O)[C@H]2O)O[C@@H]9CO)O[C@@H]8CO)O[C@@H]7CO)O[C@@H]6CO)O[C@@H]5CO)O[C@@H]4CO)O[C@@H]3CO [γ-Cyclodextrin, γ-cyclodextrin] | − |  | 
[Cl][Mn][Cl] [MnCl2] |  | 97 | 
OC[C@H]1O[C@H](OC[C@H]2O[C@H](OC[C@H]3OC(O)[C@H](O)[C@@H](O)[C@@H]3O)[C@H](O)[C@@H](O)[C@@H]2O)[C@H](O)[C@@H](O)[C@@H]1O (some centres unmarked) [Isomaltotriose, isomaltotriose] | − |  | 
OC[C@H]1O[C@@H]2O[C@H]3[C@H](O)[C@@H](O)[C@@H](O[C@H]4[C@H](O)[C@@H](O)[C@@H](O[C@H]5[C@H](O)[C@@H](O)[C@@H](O[C@H]6[C@H](O)[C@@H](O)[C@@H](O[C@H]7[C@H](O)[C@@H](O)[C@@H](O[C@H]1[C@H](O)[C@H]2O)O[C@@H]7CO)O[C@@H]6CO)O[C@@H]5CO)O[C@@H]4CO)O[C@@H]3CO [α-Cyclodextrin, α-cyclodextrin] | − |  | 
OC[C@@H](O)[C@@H](O[C@H]1O[C@H](CO)[C@@H](O[C@H]2O[C@H](CO)[C@@H](O)[C@H](O)[C@H]2O)[C@H](O)[C@H]1O)[C@H](O)[C@@H](O)CO [Maltotriitol, maltotriitol] | − |  | 
[Cl][Ni][Cl] [NiCl2] |  | 90 | 
maltoheptaose | +++ |  | CMM content (%) (CMM-forming enzyme [3]): 36.6%
[Cl-].[Cl-].[Sr+2] [SrCl2] |  | 90 | 
OC[C@H]1O[C@H](O[C@H]2O[C@H](CO)[C@@H](O)[C@H](O)[C@H]2O)[C@H](O)[C@@H](O)[C@@H]1O [Trehalose, trehalose] | − |  | 
[Cl][Hg][Cl] [HgCl2] |  | 2 | Effect on CMM-forming enzyme activity (CMM-forming enzyme [2]): remarkably inhibited
OC[C@H]1O[C@H](O[C@H]2[C@H](O)[C@@H](CO)OC(O)[C@@H]2O)[C@H](O)[C@@H](O)[C@@H]1O (some centres unmarked) [Nigerose, nigerose] | − |  | 
[Cl-].[Cl-].[Mg+2] [MgCl2] |  | 98 | 
[Cl][Fe]([Cl])[Cl] [FeCl3] |  | 32 | Effect on CMM-forming enzyme activity (CMM-forming enzyme [2]): inhibited
OC[C@H]1O[C@H](O[C@H]2C(O)O[C@H](CO)[C@@H](O)[C@@H]2O)[C@H](O)[C@@H](O)[C@@H]1O (some centres unmarked) [Kojibiose, kojibiose] | − |  | 
amylose | +++ |  | CMM content (%) (CMM-forming enzyme [3]): 41.8%; CMM content (%) (CMM-forming enzyme [3]; listed as amylose): about 42%

— patent US7951530B2, “Cyclic maltosylmaltose, cyclic maltosymaltose-forming enzyme, their preparation and uses” (Kabushiki Kaisha Hayashibara Seibutsu Kagaku Kenkyujo, priority 2003, dated 2011)
